pIC50: −log10 of the molar value.

The assay relates to murine B cells. In words: Murine B cell activation: CD86 expression on CD19 positive B cells after anti-IgM stimulation. The format is cell-based. The note with it: Balb/c mouse splenocytes, anti-IgM 30 μg/ml, 24 hours, read-out: mCD86/ IC50 CD86. Here is the method: PI3Kδ has been recognized to modulate B cell function when cells are stimulated through the B cell receptor (BCR) (Okkenhaug et al. Science 297:1031 (2002). For assessing the inhibitory property of compounds on B cell activation, the upregulation of activation markers CD86 and CD69 on murine B cells derived from mouse spleen […] is measured after stimulation with anti-IgM. CD69 is a well known activation marker for B and T cells (Sancho et al. Trends Immunol. 26:136 (2005). CD86 (also known as B7-2) is primarily expressed on antigen-presenting cells, including B cells. Resting B cells express CD86 at low levels, but upregulate it following stimulation of e.g. the BCR or IL-4 receptor. CD86 on a B cell interacts with CD28 on T cells. This interaction is required for optimal T cell activation and for the generation of an optimal IgG1 response (Carreno et al. Annu Rev Immunol. 20:29 (2002)).
Spleens from Balb/c mice were collected, splenocytes were isolated and washed twice with RPMI containing 10% foetal bovine serum (FBS), 10 mM HEPES, 100 Units/ml penicilline/streptomycine. RPMI supplemented in this way is subsequently referred to as medium. The cells were adjusted to 2.5×10^6 cells/ml in medium and 200 μl cell suspension ([…]) were added to the appropriate wells of 96 well plates.
Then the cells were stimulated by adding 50 μl anti-IgM mAb in medium (final concentration: 30 μg/ml). After incubation for 24 hours at 37° C., the cells were stained with the following antibody cocktails: anti-mouse CD86-FITC, anti-mouse CD69-PerCP-Cy5.5, anti-mouse CD19-PerCP for the assessment of B cells, and anti-mouse CD3-FITC, anti-mouse CD69-PE for the assessment of T cells (2 μl of each antibody/well). After one hour at room temperature (RT) in the dark the cells were transferred to 96 Deepwell plates. The cells were washed once with 1 ml PBS containing 2% FBS and after re-suspension in 200 μl the samples were analyzed on a FACS Calibur flow cytometer. Lymphocytes were gated in the FSC/SSC dot plot according to size and granularity and further analyzed for expression of CD19, CD3 and activation markers (CD86, CD69). Data were calculated from dot blots as percentage of cells positively stained for activation markers within the CD19+ or CD3+ population using BD CellQest Software.
For assessing the inhibitory property of compounds, compounds were first dissolved and diluted in DMSO followed by a 1:50 dilution in medium. Splenocytes from Balb/c mice were isolated, re-suspended and transfered to 96 well plates as described above (200 μl/well). The diluted compounds or solvent were added to the plates (25 μl) and incubated at 37° C. for 1 hour. Then the cultures were stimulated with 25 μl anti-IgM mAb/well (final concentration 30 μg/ml) for 24 hours at 37° C. and stained with anti-mouse CD86-FITC and anti-mouse CD19-PerCP (2 μl of each antibody/well). CD86 expression on CD19 positive B cells was quantified by flow cytometry as described above.

On to `COc1ccc(-c2ccc3ncnc(-c4cccc(C(=O)N5CCN(C(C)=O)CC5)c4)c3c2)cn1` [Example 12], for which the pIC50 is 6.97.

These data come from US20140249139A1, “Quinazoline Derivatives” (NOVARTIS AG, priority 2011, published 2014).
